Reference: patent publication US20240246960A1 (adMare Therapeutics Society, priority 2021, published 2024)
Like-named read-outs stand apart in the source and are kept apart here.

What was measured:
[1] = target: T1, DNA-PK phosphorylation at Serine 2056 (Homo sapiens, UniProt P78527); assay: Cellular Assay for Inhibition of DNA-PK Phosphorylation at Serine 2056 (FaDu cells, neocarzinostatin, sandwich ELISA); format: cell-based; details: Table 1
T1 construct: host or cells: FaDu
Procedure, shortened: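 Readout was pSer2056 and total DNA-PK, measured by sandwich ELISA on protein-normalized lysates. Prior to lysis, compound was applied to FaDu cells for 1 h (0.3% DMSO), followed by 2 h of 1 μg/mL neocarzinostatin. IC50 values were fitted from log concentration versus % inhibition normalized to DMSO and NCS controls.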

[2] = target: T2, pDNA-PK ser2056 induction in HCT116 spheroids (Homo sapiens, UniProt P78527); assay: Multicellular tumour spheroid + radiation, pDNA-PK inhibition, HCT116; format: cell-based; details: 20 Gy
T2 construct: endogenous in cells; host or cells: HCT116 multicellular tumour spheroids
Procedure, shortened: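 EC50 (μM) is concentration halving radiation-induced pDNA-PK ser2056, scored by fluorescent immunostaining of cryosections 2 h after 20 Gy. HCT116 tumour spheroids (~0.5 mm, stirred, 20% O2/5% CO2, 37 °C) exposed to serial dilutions from 10 or 5 μM to 3.5 nM starting 1 h before irradiation.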

[3] = Example 7, spheroid, cell line HCT115 [sic], 20% O2, read-out: EC50 (pDNA-PK inhibition, immunohistochemical endpoint)
[4] = Example 8, spheroid, read-out: Cell line: HCT116 Immunohistochemical endpoint pDNA-PK inhibition EC50
[5] = Example 9 Study 2, 20% O2, read-out: Spheroid Cell line: HCT116 Immunohistochemical endpoint pDNA-PK inhibition EC50

Row | Structure (SMILES) | IC50 [1] [nM] | EC50 [2, 3] [nM] | EC50 [2, 4] [nM] | EC50 [2, 5] [nM]
1 | Fc1cn([C@H]2CC[C@@H](Oc3nc(N4CCOCC4)cc4ncccc34)CC2)cn1 [Compound 17a, 4-(5-(((1s,4s)-4-(4-fluoro-1H-imidazol-1-yl)cyclohexyl)oxy)-1,6-naphthyridin-7-yl)morpholine] | < 100 | 1000 to 10000 | 1000 to 10000 | 1000 to 10000
2 | Cc1nc(C(F)(F)F)cn1[C@H]1CC[C@@H](Oc2nc(N3CCOCC3)cc3ncccc23)CC1 [Compound 17i, 4-(5-(((1s,4s)-4-(2-methyl-4-(trifluoromethyl)-1H-imidazol-1-yl)cyclohexyl)oxy)-1,6-naphthyridin-7-yl)morpholine] | 100 to 1000 | 1000 to 10000 | 1000 to 10000 | 1000 to 10000
3 | FC(F)(F)c1cncn1[C@H]1CC[C@@H](Oc2nc(N3CCOCC3)cc3ncccc23)CC1 [Compound 17j, 4-(5-(((1s,4s)-4-(5-(trifluoromethyl)-1H-imidazol-1-yl)cyclohexyl)oxy)-1,6-naphthyridin-7-yl)morpholine] | 100 to 1000 | 500 to 1000 | 500 to 1000 | 500 to 1000
4 | Oc1cnc2cc(N3CCOCC3)nc(O[C@H]3CC[C@@H](Nc4ncccn4)CC3)c2c1 [Compound 19a, 7-Morpholino-5-(((1s,4s)-4-(pyrimidin-2-ylamino)cyclohexyl)oxy)-1,6-naphthyridin-3-ol] | < 100 | 500 to 1000 | 500 to 1000 | 500 to 1000
5 | CCOCCOc1cnc(N[C@H]2CC[C@@H](Oc3nc(N4CCOCC4)cc4ncc(O)cc34)CC2)nc1 [Compound 19b, 5-(((1s,4s)-4-((5-(2-Ethoxyethoxy)pyrimidin-2-yl)amino)cyclohexyl)oxy)-7-morpholino-1,6-naphthyridin-3-ol] | 100 to 1000 | 10 to 500 | 10 to 500 | 10 to 500
6 | COc1cnc(N[C@H]2CC[C@@H](Oc3nc(N4CCOCC4)cc4ncc(O)cc34)CC2)nc1 [Compound 19c, 5-(((1s,4s)-4-((5-Methoxypyrimidin-2-yl)amino)cyclohexyl)oxy)-7-morpholino-1,6-naphthyridin-3-ol] | < 100 | 1000 to 10000 | 1000 to 10000 | 1000 to 10000
7 | c1cnc(N[C@H]2CC[C@@H](Oc3nc(N4CCOCC4)cc4ncccc34)CC2)nc1 [Compound 20a, N-((1s,4s)-4-((7-Morpholino-1,6-naphthyridin-5-yl)oxy)cyclohexyl)pyrimidin-2-amine] | 100 to 1000 | 500 to 1000 | 500 to 1000 | 500 to 1000
8 | FC(F)c1ccc2c(O[C@H]3CC[C@@H](Nc4ncccn4)CC3)nc(N3CCOCC3)cc2n1 [Compound 21, N-((1s,4s)-4-((2-(Difluoromethyl)-7-morpholino-1,6-naphthyridin-5-yl)oxy)cyclohexyl)pyrimidin-2-amine] | 100 to 1000 | 10000 to 100000 |  | 10000 to 100000
9 | FC(F)c1ccnc2cc(N3CCOCC3)nc(O[C@H]3CC[C@@H](Nc4ncccn4)CC3)c12 [Compound 22, N-((1s,4s)-4-((4-(Difluoromethyl)-7-morpholino-1,6-naphthyridin-5-yl)oxy)cyclohexyl)pyrimidin-2-amine] | < 100 | 500 to 1000 |  | 500 to 1000
10 | c1cnc2cc(N3CCOCC3)nc(O[C@H]3CC[C@@H](Nc4cncnc4)CC3)c2c1 [Compound 28, N-((1s,4s)-4-((7-morpholino-1,6-naphthyridin-5-yl)oxy)cyclohexyl)pyrimidin-5-amine] | < 100 | 1000 to 10000 |  | 1000 to 10000
11 | Cn1cnc(N[C@H]2CC[C@@H](Oc3nc(N4CCOCC4)cc4ncccc34)CC2)n1 [Compound 31, 1-methyl-N-((1s,4s)-4-((7-morpholino-1,6-naphthyridin-5-yl)oxy)cyclohexyl)-1H-1,2,4-triazol-3-amine] | 100 to 1000 | 1000 to 10000 |  | 1000 to 10000
12 | Cc1cnc(N[C@H]2CC[C@@H](Oc3nc(N4CCOCC4)cc4ncccc34)CC2)nc1 [Compound 32, 5-Methyl-N-((1s,4s)-4-((7-morpholino-1,6-naphthyridin-5-yl)oxy)cyclohexyl)pyrimidin-2-amine] | 100 to 1000 | 1000 to 10000 | 1000 to 10000 | 1000 to 10000
13 | FC(F)(F)c1cnc(N[C@H]2CC[C@@H](Oc3nc(N4CCOCC4)cc4ncccc34)CC2)nc1 [Compound 34, N-((1s,4s)-4-((7-Morpholino-1,6-naphthyridin-5-yl)oxy)cyclohexyl)-5-(trifluoromethyl)pyrimidin-2-amine] | 100 to 1000 | 1000 to 10000 | 1000 to 10000 | 1000 to 10000
14 | FC(F)Oc1cnc(N[C@H]2CC[C@@H](Oc3nc(N4CCOCC4)cc4ncccc34)CC2)nc1 [Compound 35, 5-(Difluoromethoxy)-N-((1s,4s)-4-((7-morpholino-1,6-naphthyridin-5-yl)oxy)cyclohexyl)pyrimidin-2-amine] | < 100 | 1000 to 10000 | 1000 to 10000 | 1000 to 10000
15 | COc1ccc(N[C@H]2CC[C@@H](Oc3nc(N4CCOCC4)cc4ncccc34)CC2)nn1 [Compound 38, 6-methoxy-N-((1s,4s)-4-((7-morpholino-1,6-naphthyridin-5-yl)oxy)cyclohexyl)pyridazin-3-amine] | < 100 | 1000 to 10000 |  | 1000 to 10000
16 | Nc1cnc(N[C@H]2CC[C@@H](Oc3nc(N4CCOCC4)cc4ncccc34)CC2)nc1 [Compound 43, N2-((1s,4s)-4-((7-morpholino-1,6-naphthyridin-5-yl)oxy)cyclohexyl)pyrimidine-2,5-diamine] | < 100 | 10 to 500 |  | 10 to 500
17 | CS(=O)(=O)Nc1cnc(N[C@H]2CC[C@@H](Oc3nc(N4CCOCC4)cc4ncccc34)CC2)nc1 [Compound 44, N-(2-(((1s,4s)-4-((7-morpholino-1,6-naphthyridin-5-yl)oxy)cyclohexyl)amino)pyrimidin-5-yl)methanesulfonamide] | < 100 | 500 to 1000 |  | 500 to 1000
18 | Oc1cnc(N[C@H]2CC[C@@H](Oc3nc(N4CCOCC4)cc4ncccc34)CC2)nc1 [Compound 45, 2-(((1s,4s)-4-((7-morpholino-1,6-naphthyridin-5-yl)oxy)cyclohexyl)amino)pyrimidin-5-ol] | < 100 | 500 to 1000 |  | 500 to 1000
19 | NS(=O)(=O)c1cnc(N[C@H]2CC[C@@H](Oc3nc(N4CCOCC4)cc4ncccc34)CC2)nc1 [Compound 46, 2-(((1s,4s)-4-((7-morpholino-1,6-naphthyridin-5-yl)oxy)cyclohexyl)amino)pyrimidine-5-sulfonamide] | 1000 to 10000 | 500 to 1000 |  | 500 to 1000
20 | Cc1ccnc(N[C@H]2CC[C@@H](Oc3nc(N4CCOCC4)cc4ncccc34)CC2)n1 [Compound 48, 4-methyl-N-((1s,4s)-4-((7-morpholino-1,6-naphthyridin-5-yl)oxy)cyclohexyl)pyrimidin-2-amine] | < 100 | 500 to 1000 |  | 500 to 1000
21 | COc1ccnc(N[C@H]2CC[C@@H](Oc3nc(N4CCOCC4)cc4ncccc34)CC2)n1 [Compound 49, 4-methoxy-N-((1s,4s)-4-((7-morpholino-1,6-naphthyridin-5-yl)oxy)cyclohexyl)pyrimidin-2-amine] | 100 to 1000 | 1000 to 10000 |  | 1000 to 10000
22 | NC(=O)c1cnc(N[C@H]2CC[C@@H](Oc3nc(N4CCOCC4)cc4ncccc34)CC2)nc1 [Compound 52, 2-(((1s,4s)-4-((7-morpholino-1,6-naphthyridin-5-yl)oxy)cyclohexyl)amino)pyrimidine-5-carboxamide] | < 100 | 10 to 500 |  | 10 to 500
23 | CN(C)C(=O)c1cnc(N[C@H]2CC[C@@H](Oc3nc(N4CCOCC4)cc4ncccc34)CC2)nc1 [Compound 53, N,N-dimethyl-2-(((1s,4s)-4-((7-morpholino-1,6-naphthyridin-5-yl)oxy)cyclohexyl)amino)pyrimidine-5-carboxamide] | < 100 | 500 to 1000 |  | 500 to 1000
24 | c1cnc2cc(N3CCOCC3)nc(O[C@H]3CC[C@@H](Nc4ncnc5ccoc45)CC3)c2c1 [Compound 80a, N-((1s,4s)-4-((7-morpholino-1,6-naphthyridin-5-yl)oxy)cyclohexyl)furo[3,2-d]pyrimidin-4-amine] | 100 to 1000 | 10 to 500 |  | 10 to 500
25 | Cc1nc(N[C@H]2CC[C@@H](Oc3nc(N4CCOCC4)cc4ncccc34)CC2)c2occc2n1 [Compound 81, 2-methyl-N-((1s,4s)-4-((7-morpholino-1,6-naphthyridin-5-yl)oxy)cyclohexyl)furo[3,2-d]pyrimidin-4-amine] | 100 to 1000 | 500 to 1000 |  | 500 to 1000
26 | c1cnc2cc(N3CCOCC3)nc(O[C@H]3CC[C@@H](Nc4ncnc5occc45)CC3)c2c1 [Compound 82, N-((1s,4s)-4-((7-morpholino-1,6-naphthyridin-5-yl)oxy)cyclohexyl)furo[2,3-d]pyrimidin-4-amine] | < 100 | 10 to 500 |  | 10 to 500
27 | c1cnc2cc(N3CCOCC3)nc(O[C@H]3CC[C@@H](Nc4ncnc5ccsc45)CC3)c2c1 [Compound 83, N-((1s,4s)-4-((7-morpholino-1,6-naphthyridin-5-yl)oxy)cyclohexyl)thieno[3,2-d]pyrimidin-4-amine] | < 100 | 10 to 500 |  | 10 to 500
